From ChEMBL document CHEMBL1833852, “Design, synthesis, and X-ray crystallographic analysis of a novel class of HIV-1 protease inhibitors” (J Med Chem, 2011) come the findings set out here.

The structures appear in SMILES notation. The source made the active and inactive calls. The calls are words filed in the database; no cut-off is given here.

The target in the first test is Protease (Human immunodeficiency virus 1, UniProt Q9YQ12). Nature of the test: (§1) Inhibition of Human immunodeficiency virus 1 protease activity after 60 mins by HPLC analysis.
Chain of Protease (Q9YQ12 whole entry): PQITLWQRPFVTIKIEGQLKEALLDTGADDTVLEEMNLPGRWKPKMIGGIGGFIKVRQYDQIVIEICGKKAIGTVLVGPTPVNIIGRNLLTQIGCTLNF
On to `COc1ccc2c(c1)C[C@H](C)CN(C[C@@H](O)[C@H](Cc1ccccc1)NC(=O)OC(C)(C)C)S2(=O)=O`, for which the Ki (commonly a measure of affinity in units of concentration, obtained from inhibition or displacement) stood at 19 nM. For the molecule `C[C@H]1Cc2cc(F)ccc2S(=O)(=O)N(CC(O)C(Cc2ccccc2)NC(=O)[C@@H]2CN(c3ccccc3)C(=O)O2)C1` (single isomer, unassigned), the affinity, expressed as Ki, was 30 nM. Same read-out and setting: the figure for `C[C@H]1Cc2cc(C(F)(F)F)ccc2S(=O)(=O)N(C[C@@H](O)[C@H](Cc2ccccc2)NC(=O)OC(C)(C)C)C1` is 186 nM; for `CCOC(=O)NC(Cc1ccccc1)C(O)CN1C[C@@H](C)Cc2ccccc2S1(=O)=O` (single isomer, unassigned) it is 34 nM.

In turn, `C[C@H]1Cc2ccccc2S(=O)(=O)N(CC(O)C(Cc2ccccc2)NC(=O)OC(C)(C)C)C1` (single isomer, unassigned) yielded an inhibitory constant (Ki) of 29 nM. On to `CC(C)(C)OC(=O)N[C@@H](Cc1ccccc1)[C@H](O)CN1CCCc2ccccc2S1(=O)=O`, for which the Ki was found to be 470 nM.

Regarding `C=CCOC(=O)N[C@@H](Cc1ccccc1)[C@H](O)CN1C[C@@H](C)Cc2ccccc2S1(=O)=O`, the Ki was 27 nM. For `C[C@@H]1Cc2ccccc2S(=O)(=O)N(CC(O)C(Cc2ccccc2)NC(=O)OC(C)(C)C)C1` (single isomer, unassigned), the affinity corresponds to a Ki of 1000 nM. Still for that read-out and setting: the value for `C[C@H]1Cc2ccc(C(F)(F)F)cc2S(=O)(=O)N(C[C@@H](O)[C@H](Cc2ccccc2)NC(=O)OC(C)(C)C)C1` was 100 nM. Take `C[C@H]1Cc2ccccc2S(=O)(=O)N(CC(O)C(Cc2ccccc2)NC(=O)Oc2ccccc2)C1` (single isomer, unassigned): the affinity corresponds to a Ki of 350 nM.

For another test, the target named is Protease (Human immunodeficiency virus 1) (UniProt Q9YQ12). The test is described as §1.
Chain of Protease (Human immunodeficiency virus 1) (Q9YQ12 as listed by the source): as the sequence (Q9YQ12 whole entry) above
In the case of `O=C1N[C@@H](Cc2ccccc2)[C@@H](CN2CCCc3ccccc3S2(=O)=O)O1`, the inhibition entry is “inactive”.
